Measured values taken from patent US8313751B2, “Compositions and methods for the prophylaxis or treatment of viral diseases” (priority 2003, dated 2012).
“Also recorded” adds a separate entry of the source. Read-outs that look alike come from different tables or passages of the source.

How the values were obtained:
[1] = test system: influenza virus (fowl plague virus, FPV); set-up: species or system C57 Bl/6 mice; conditions: mouse, in vivo
[2] = test system: influenza A virus strain fowl plague virus (FPV); assay type: cell-based
[3] = test system: influenza virus (fowl plague virus, FPV); conditions: mouse, in vivo, ip
[4] = test system: influenza A virus strain fowl plague virus (FPV); assay type: cell-based; remark: listed apart in the source
[5] = test system: influenza virus; conditions: cited from earlier work

SMILES | animals that survived the infection [1] | antiviral effect compared with lower concentrations [1] | average survival time of the dead animals versus control group [1] | influenza virus multiplication in the lung and in the total organism [1] | viruses in the lung [1] | inhibiting effect on virus multiplication [2] [log steps] | reduction of the virus titers by a factor [2] | animals that survived the infection [3] | average survival time of the dead animals versus control group [3] | body weight [3] | antiviral effectivity in vitro [4] | inhibition of the virus multiplication [4] [log steps] | concentration from which inhibition of influenza virus infections in cell culture was observed [5] [mM] | concentration from which inhibition of influenza virus infections in cell culture was observed ([5]; conversion of the mM values) [mg/mL] | reduction of the virus titers [4]
CC(=O)Oc1ccccc1C(=O)O [ASA, acetylsalicylic acid] | approx. 40% | comparatively not stronger; also recorded: clearly less antivirally effective | clearly longer | distinct inhibition | Smaller doses of ASA more clearly reduced the viruses in the lung than higher doses | > 2 | 10 | approx. 20% | clearly longer | distinct reduction in body weight | have not shown in vitro any antiviral effectivity | 2 | 5 to 10 | 0.9 to 1.8 | 
S=C(S)N1CCCC1 [PDTC, pyrrolidine dithiocarbamate] |  |  |  |  |  |  |  |  |  |  |  |  |  |  | approx. 10 fold
